From a melting point compilation (Tetko et al.) come the findings set out here.

For `CC(C)c1nc2ccccc2[nH]1`, the melting point (as a rule, the temperature of the solid-liquid transition) was found to be 235 °C.
Turning to `OCc1ccc(N2CCCCC2)nc1`, the melting point fell in the range of 70 to 71 °C.
For `O=C(O)C1CC1(F)F` (stereo unspecified) the value was 58 °C; for `NS(=O)(=O)c1ccc2ccccc2c1`, 219 °C; for `CCCC(=O)c1ccc(NC(C)=O)cc1O`, 85 to 87 °C.
For `CCCCCCC(C=O)=Cc1ccccc1` the value was 39.2 °C; for `CCC(=O)c1ccc2c(c1)N(CCCN(C)C)c1ccccc1S2`, 69.5 °C; for `O=C(CO)c1ccc(Br)cc1`, 137 to 142 °C.
For `O=[N+]([O-])c1cccc(N=C=S)c1` the value was 58 to 60 °C; for `Cc1ccc2ncoc2c1`, 29 to 31 °C; for `COc1cc(C(=O)c2ccccc2Cl)c([N+](=O)[O-])cc1OC`, 122 °C.
For the compound `Clc1nc(-c2ccccc2)nc2ccccc12`, the melting point lay in the range of 123 to 128 °C.
`CC(C)(C)OC(=O)NC1(C(=O)O)CCc2ccccc2C1` (stereo unspecified) gave a melting point of 185 to 187 °C.
Take `CC1(C)CC(C)(c2ccc(O)cc2)c2ccccc2O1` (stereo unspecified): the melting point came to 140 °C.
Compound `O=[N+]([O-])c1ccc(N=Nc2ccccc2)cc1` showed a melting point of 133 °C.
Then `FC(F)(F)C(F)(F)C(F)(F)C(F)(F)C(F)(F)C(F)(F)OC(F)(F)C(F)(F)C(F)(F)C(F)(F)C(F)(F)C(F)(F)F`, with -90 °C; and `COc1ccc(CC(=O)O)cc1C`, with 93 to 95 °C.
Then `NS(=O)(=O)c1ccc(SCCO)c([N+](=O)[O-])c1`, with 151 °C; and `Oc1ccc(Cl)c2c1CCC2`, with 92 °C; and `Cc1nc(-c2ccc(C(=O)O)cc2)cs1`, with 263 to 268 °C.
`CCCCCCCCCCCCCCCCCCCl` showed a melting point of 28.6 °C.
For `COC(OC)(C(=O)c1ccccc1)c1ccccc1` the value was 66 °C; for `O=C(Cc1ccc(/N=C/c2ccccc2)cc1)c1ccc(/N=C/c2ccccc2)cc1`, 181 °C.
Then `CC(C)OC(=O)C1(S(=O)(=O)c2ccc(Cl)cc2)CC1`, with 89.8 °C; and `CCCC(=O)c1cc(O)c(O)cc1O`, with 154 °C.
In the case of `Nc1cccc2c(O)nnc(O)c12`, the melting point is 330 °C.
`COC(=O)c1cc(C)c(S(=O)(=O)Cl)s1` showed a melting point of 40 to 41 °C.
Then `N#CCCN(CCO)c1ccc(N=Nc2ccc([N+](=O)[O-])cc2Cl)cc1`, with 157 °C.
Regarding `O=Cc1ccc(N2CCCCC2)cc1`, the melting point fell in the range of 62 to 63 °C.
On to `CC1(C)OC(=O)C(=NNc2ccccc2[N+](=O)[O-])C(=O)O1`, for which the melting point turned out to be 165 °C.
For `CC1=NC(=Cc2cccc3ccccc23)C(=O)O1` the value was 244 °C.
Then `N#Cc1cccc(C(=O)Cc2cccc(Cl)c2)c1`, with 87.5 to 90.8 °C; and `NS(=O)(=O)c1cc(-c2nnn[nH]2)c(NCc2cccs2)cc1Cl`, with 220 °C; and `O=C(NC1CCCCC1)c1ccccc1`, with 145 °C.
Then `CC(C)c1cc(C(C)C)c(S(=O)(=O)Cl)c(C(C)C)c1`, with 96 °C; and `Brc1sc(-c2ccccc2)nc1-c1ccccc1`, with 88 to 89 °C.
Regarding `O=C(O)CN(CCO)CC(=O)O`, the melting point is 178 °C.
For `c1ccc2c(c1)OCCOCCOCCOCCOCCO2` the value was 40 to 45 °C.
Then `Cc1nn(-c2ccccc2)c(C)c1C(=O)Cl`, with 58 to 59 °C; and `Cc1c([N+](=O)[O-])cc(C(C)C)c(O)c1[N+](=O)[O-]`, with 55.5 °C; and `Cc1nnc(SCc2ccccc2)n1N=Cc1ccc(N(C)C)cc1`, with 47 to 49 °C.
For `Fc1ccc(CN2CCNCC2)cc1` the value was 64 to 65 °C; for `O=c1[nH]c2ccccc2n1C1CCN(CCCC(c2ccc(F)cc2)c2ccc(F)cc2)CC1`, 216 °C; for `Nc1cccnc1N1CCOCC1`, 127 to 128 °C.
`O=C(O)c1nc(Cl)ccc1Cl` yielded a melting point of 151 °C.
Then `COCCc1ccc(O)cc1`, with 44 °C; and `COc1ccc(C2(C)CCc3oc4ccc(Cl)cc4c3-c3oc(C)cc32)cc1` (stereo unspecified), with 144 °C.
For `N#Cc1ccccc1CBr` the value was 72 °C; for `COc1ccc(N=[N+]([O-])c2ccc(OC)cc2)cc1`, 132 °C; for `CC(=O)NCC1CN(c2ccc(N3CCOCC3)c(F)c2)C(=O)O1` (stereo unspecified), 182 °C.
For `ClCCc1ccc(CCCl)cc1` the value was 47 °C.
As to `CC(=O)OCC1OC(Oc2ccc([N+](=O)[O-])cc2)C(OC(C)=O)C(OC(C)=O)C1OC(C)=O` (stereo unspecified), the melting point was found to be 177 °C.
For `N#Cc1[nH]cnc2ncnc1-2` the value was 188 °C; for `CC[Si](Cl)(Cl)Cl`, -106 °C; for `OCC1OC(O)CC(O)C1O` (stereo unspecified), 150 °C.
Then `CCCCC(CC)CNCC(CC)CCCC` (stereo unspecified), with -60 °C; and `CCOC(=O)C1=C(C)OC(N)=C(c2nc3ccccc3s2)C1c1ccc(N(C)C)cc1` (stereo unspecified), with 215 °C.
The compound `O=Cc1ccccc1N1CCN(Cc2ccccc2)CC1` had a melting point of 58 to 60 °C.
Then `COc1ccc(C(=O)C(O)c2ccc(OC)cc2)cc1` (stereo unspecified), with 112 °C.
For `N#Cc1cc([N+](=O)[O-])ccc1Sc1nnc(N)s1` the value was 245 to 246 °C; for `CC(=O)Nc1cc([N+](=O)[O-])c(C=Cc2ccccc2)cc1C=Cc1ccccc1`, 227 °C.
Then `N#CCc1nc(-c2ccc3c(c2)OCCO3)cs1`, with 116 to 118 °C; and `Cc1c(C)n(C=O)c2ccccc12`, with 89 °C.
For the compound `O=C(O)c1cc(Br)cs1`, the melting point was determined as 121 °C.
As for `O=CCCl`, the melting point is -16.3 °C.
Then `NC(Cc1ccc(O)c(O)c1)C(=O)O` (stereo unspecified), with 295 °C; and `Cc1onc(-c2c(Cl)cccc2Cl)c1C(N)=S`, with 173 to 176 °C.
Turning to `N#CC1=C(N)n2nc(C(F)(F)F)nc2NC1c1c(Cl)cccc1Cl` (stereo unspecified), the melting point was 323 °C.
For `C=COCCCCCCCCCC` the value was -41 °C; for `CNC(=O)COC(=O)c1ccccc1`, 112 °C.
For `CCOc1ccc(N)c(N)c1` the value was 71.5 °C.
Then `O=C(O)C1(c2c(F)cccc2Cl)CCCCC1`, with 128 to 134 °C; and `CSC(=NS(=O)(=O)c1ccc(C)cc1)SC`, with 109 to 110 °C; and `FC(F)(F)c1cc(Br)c2nc[nH]c2c1`, with 218 to 220 °C.
Turning to `CN1CCCN(C)C1=O`, the melting point is -20 °C.
Compound `COc1c(C(C)(C)C(C)C)c(OC(C)=O)c(OC(C)=O)c2ccccc12` gave a melting point of 145 °C.
Then `C#Cc1ccc2nccnc2c1`, with 98 °C.
Then `O=Cc1ccc(I)o1`, with 127 °C; and `CC1CCC2C(C)C3C(CC4C5CC=C6CC(O)CCC6(C)C5CCC43C)N2C1` (stereo unspecified), with 218 °C; and `O=Cc1ccc(C=O)s1`, with 114 to 117 °C.
For `O=S(=O)(Cl)c1ccc(-c2cc(C(F)(F)F)on2)s1` the value was 106 to 107 °C.
The compound `CCC(C)(C)C(=O)O` showed a melting point of -14 °C.
`Clc1cncc(Oc2ccc(Cl)nn2)c1`: the melting point lay within 112 to 114 °C.
For `CCC1C(C#N)=C(N)Oc2c1c(=O)oc1ccccc21` (stereo unspecified) the value was 233 to 237 °C; for `COc1ccc(C(N)=O)c(Cl)c1OC`, 165 to 168 °C.
Then `CNc1ccc(O)c2c1C(=O)c1c(O)ccc(NC)c1C2=O`, with 217 °C; and `N#CC1CC2CCC1C2` (stereo unspecified), with 44 °C.
For `Nc1cccc(-c2ccsc2)c1` the value was 89 °C; for `CC(C(=O)O)c1ccc(N2CC=CC2)c(Cl)c1` (stereo unspecified), 99 °C; for `Cc1oc(-c2ccccc2)nc1CC(=O)O`, 131 to 133 °C.
Turning to `NC(=O)C(Br)CBr` (stereo unspecified), the melting point is 133 °C.
Then `O=[N+]([O-])c1ccc(-c2ccc(/N=N/c3ccccc3)cc2)cc1`, with 178 to 179 °C.
For `CSc1sc(C(=O)O)c(-c2ccc(Cl)cc2)c1C#N` the value was 241 to 243 °C.
`CC(F)(Cl)CCl` (stereo unspecified) gave a melting point of -91.7 °C.
For `CC(=O)Nc1ccc(C(C)=O)cc1` the value was 169 °C.
`Brc1cncc(-c2nnn[nH]2)c1`: the melting point worked out at 226 °C.
Then `C=CC(=O)Nc1ccc2c(c1)OCCOCCOCCOCCOCCO2`, with 108 to 112 °C; and `CCOC(=O)c1sc2sc(C(=O)OCC)c(NC(=O)c3ccccc3)c2c1NC(=O)c1ccccc1`, with 286 °C; and `c1c2c(cc3c1CCCC3)CCCC2`, with 78 °C.
For `O=[N+]([O-])c1cc([N+](=O)[O-])c(/C(Cl)=C\c2ccccc2)cc1C(Cl)=Cc1ccccc1` the value was 146 °C; for `CC1CCC(C)C(C)C1C` (stereo unspecified), -75 °C; for `C=C(Br)CC1(C(C)CC)C(=O)NC(=O)NC1=O` (stereo unspecified), 132 °C.
For `C=COCCCl` the value was -70 °C; for `CN1C(=O)c2ccccc2C1O` (stereo unspecified), 133 °C; for `CC1(O)Cc2cccc(Cl)c21` (stereo unspecified), 94 °C.
With `NS(=O)(=O)c1cc(C(=O)O)c(Cl)cc1Cl`, the melting point was in the range of 230 to 234 °C.
`O=C(O)c1cnn(-c2ccccc2)c1C(F)(F)F`: the melting point fell in the range of 139 to 141 °C.
`CC12CCC(=O)C=C1CCC1C2C(O)CC2(C)C1CCC2(O)C(=O)CO` (stereo unspecified) yielded a melting point of 223 °C.
Then `O=c1[nH]c(=O)n(C2CC(O)C(CO)O2)cc1Br` (stereo unspecified), with 192 °C; and `Ic1ncc[nH]1`, with 191 °C.
Compound `O=C(O)[C@H](Cc1ccccc1)NC(=O)C(F)(F)F` registered a melting point of 126 to 127 °C.
